The values below come from ChEMBL document CHEMBL5375945, “Structure-Guided Design of a Domain-Selective Bromodomain and Extra Terminal N-Terminal Bromodomain Chemical Probe” (J Med Chem, 2023).

The target of test [1] is T1, Bromodomain-containing protein 4 (Homo sapiens, UniProt O60885). The test is described as follows: Inhibition of BRD4 BD1 (unknown origin) by TR-FRET assay.
Test [2] has as its target T1, Bromodomain-containing protein 4. The test is described as follows: Inhibition of BRD4 BD2 (unknown origin) by TR-FRET assay. A general note: TR-FRET usually uses a lanthanide donor and a delayed reading to cut background.

In general, IC50 refers to the concentration that gives 50% inhibition. Higher therefore signals weaker potency in that assay. As for `CC(=O)N1CCC[C@H](Cn2c(-c3cc(C)c(=O)n(C)c3)nc3ccccc32)C1`, the 50% inhibitory concentration (IC50) in test [1] is 31.6 nM; in test [2], 501 nM. For `CC(=O)N1CCC[C@@H](Cn2c(-c3cc(C)c(=O)n(C)c3)nc3cc(Br)ccc32)C1`, the IC50 in test [1] is 10 nM; in test [2], 501 nM. With `CC(=O)N1CCC[C@@H](Cn2c(-c3cc(C)c(=O)n(C)c3)nc3ccccc32)C1`, in test [2], the midpoint of inhibition, the IC50, lay at 631 nM.
